{
  "source": "patent US8912136B2",
  "about": "“Methods and compositions related to clot-binding compounds” (Sanford-Burnham Medical Research Institute, priority 2009, dated 2014)",
  "key": {"mouse plasma clots": {"tested_on": "mouse plasma clots", "assay": "Nanoparticle binding to plasma clots in vitro", "conditions": "FIG. 1D", "description": "Phage and nanoparticle binding to clots. Phage binding to clotted plasma proteins was determined as described (Pilch 2006). CREKA-SPIO and control SPIO were added to freshly formed plasma clots in the presence or absence of free CREKA peptide. After 10 min incubation, the clots were washed 4 times in PBS, transferred to a new tube and digested in 100 μl concentrated nitric acid. The digested material was diluted in 2 ml distilled water and the iron concentration was determined using inductively coupled plasma-optical emission spectroscopy (ICP-OES, PerkinElmer, Norwalk, Conn.)."}, "B16F1 melanomas": {"tested_on": "B16F1 melanomas", "assay": "CREKA peptide homing in fibrinogen null mice and normal littermates", "assay_type": "in vivo, mouse", "conditions": "intravenous", "description": "Tumors contain a meshwork of clotted plasma proteins in the tumor stroma and the walls of vessels, but no such meshwork is detectable in normal tissues (Dvorak 1985; Abe 1999; Pilch 2006). The mesh-like pattern produced by the CREKA peptide in tumors prompted the study of whether clotted plasma proteins can be the target of this peptide. The peptide was tested in fibrinogen knockout mice, which lack the fibrin meshwork in their tumors. […] Its structure makes it an attractive peptide to use in nanoparticle targeting because, unlike other clot-binding peptides, which are cyclic 10 amino-acid peptides (Pilch 2006), CREKA is linear and contains only 5 amino acids. Moreover, the sulfhydryl group of the single cysteine residue is not required to provide binding activity and can be used to couple the peptide to other moieties.\nPhage screening, tumors and peptides. In vivo screening of a peptide library with the general structure of CX7C (SEQ ID NO: 4), where C is cysteine and X is any amino acid, was carried out as described (Oh 2004) using 65- to 75-day-old transgenic MMTV PyMT mice (Hutchinson 2000). These mice express the polyoma virus middle T antigen (MT) under the transcriptional control of the mouse mammary tumor virus (MMTV), leading to the induction of multi-focal mammary tumors in 100% of carriers. […]"}, "[1]": {"assay": "Peptide stability in vivo (NW-bound peptide recovered from blood, mass spectrometry)", "set-up": "species or system mouse", "description": "The peptides were conjugated with a linker that bridges the NW and a cysteine residue on the peptide, forming a disulfide with the OPSS group. The peptide-coated NW were injected into animals, and blood was collected 15 minutes and 3 hours after the injection. The plasma was separated and NW were collected by ultracentrifugation (100,000×g for 10 minutes at 4° C.). Proteins bound to the NW were removed by incubation with glycine-HCl, pH 2.8 on a magnetic LS columns (MACS separation columns, Miltenyi Biotec, Bergisch Gladbach, Germany). The peptides were cleaved from the NW by incubating with 10 mM dithiothreitol for 30 minutes at room temperature. The iron oxide was separated from the peptide by ultracentrifugation (100,000×g for 10 minutes at 4° C.) and the supernatant fractions containing the peptide were analyzed by matrix-assisted laser desorption ionization-time of flight (MALDI-TOF) mass spectrometry."}, "plasma clots": {"target": "plasma clots", "assay": "Binding to plasma clots (affinity)", "conditions": "data not shown"}, "PyMT tumors": {"tested_on": "PyMT tumors", "assay": "Tumor homing of intravenously injected fluorescent CREKA peptide", "assay_type": "in vivo, mouse", "conditions": "intravenous; fluorescent dye at N-terminus; minutes to hours after the injection", "text": "(§1) CREKA peptide. A tumor-homing peptide was used to construct targeted nanoparticles. […] The most frequently represented peptide sequence in the selected phage preparation was CREKA (cys-arg-glu-lys-ala; SEQ ID NO:1). The CREKA peptide was synthesized with a fluorescent dye attached to the N-terminus and the in vivo distribution of the peptide was studied in tumor-bearing mice. […] The peptide formed a distinct meshwork in the tumor stroma (FIG. 5), and it also highlighted the blood vessels in the tumors.\n(§2) Phage screening, tumors and peptides. In vivo screening of a peptide library with the general structure of CX7C (SEQ ID NO: 4), where C is cysteine and X is any amino acid, was carried out as described (Oh 2004) using 65- to 75-day-old transgenic MMTV PyMT mice (Hutchinson 2000). These mice express the polyoma virus middle T antigen (MT) under the transcriptional control of the mouse mammary tumor virus (MMTV), leading to the induction of multi-focal mammary tumors in 100% of carriers. MDA-MB-435 tumors in nude mice and peptide synthesis have been described (Laakkonen 2002; Laakkonen 2004). B16F1 murine melanoma tumors were grown in fibrinogen null mice (Suh 1995) and their normal littermates and used when they reached 0.5-1 cm in size (Pilch 2006)."}, "[2]": {"tested_on": "MDA-MB-435 human breast cancer xenografts", "assay": "Tumor homing of intravenously injected fluorescent CREKA peptide", "assay_type": "in vivo, mouse", "text": "as §1, §2"}, "[3]": {"tested_on": "orthotopic 22Rv1 xenograft tumors", "assay": "In vivo homing of FAM-labeled CREKA and methylated CREKA peptides", "set-up": "species or system mouse", "description": "Tumor accumulation of CREKA peptide and its N-methylated and C-methylated variants. The accumulation of N-methylated and C-methylated derivatives of CREKA was measured in mice bearing orthotropic 22Rv-1 xenograft tumors. The mice were intravenously injected with 200 μg of FAM-conjugated CREKA or methylated CREKA peptides derivatives. The peptides were allowed to circulate for 3 hrs. The mice were then perfused through the heart with PBS, and organs were collected and the fluorescence was measured under UV light. The fluorescence was analyzed with Image J software. Most N/C-methylated CREKA analogs produced stronger fluorescence compared to the unmodified CREKA. […] In FIG. 10B the enhanced fluorescence of CR(NMe)EKA is shown in the tumor compared to both CREKA and C(NMe)REKA peptide. It is shown that FAM-labeled CREKA peptide in which the glutamic acid is N-methylated accumulates in tumor tissue more strongly than unmodified CREKA.\nOrthotopic prostate cancers were used when they reached 0.5-1 cm in size. Synthetic peptides labeled with fluorescein (approximately 200 μg) were intravenously injected into tumor-bearing mice and allowed to circulate for 15 minutes to 3 hours. The mice were perfused with PBS through the heart under anesthesia, and tissues were collected and observed under UV light (Illumatool Bright Light System LT-9900, Lightools Research, Encinitas, Calif.), and then processed for immunofluorescence or immunohistochemistry."}},
  "note": "Where no end group is shown, it is not given here. FAM = 5(6)-carboxyfluorescein; Ahx = NCCCCCC(=O)O",
  "data": [
    {"substance": "cys-arg-glu-lys-ala ({FAM-Ahx}-CREKA; not fully specified; printed as cys-arg-glu-lys-ala)", "values": [
      {"measurement": "effect of free peptide on CREKA-SPIO binding to clotted plasma proteins", "setting": "mouse plasma clots", "value": "inhibited"},
      {"measurement": "accumulation in tumors grown in fibrinogen null mice", "setting": "B16F1 melanomas; fibrinogen null mice", "value": "failed to accumulate"},
      {"measurement": "accumulation in tumors grown in normal littermates", "setting": "B16F1 melanomas; normal littermates of the null mice", "value": "formed a brightly fluorescent meshwork"},
      {"measurement": "peptide abundance in blood samples", "setting": "[1]; after 15 minutes of circulation", "value": "equally abundant"},
      {"measurement": "peptide in blood samples", "setting": "[1]; after 3 hours", "value": "undetectable"},
      {"measurement": "Kd", "setting": "plasma clots", "value": 6, "unit": "µM"},
      {"measurement": "CREKA peptide detection in tumors", "setting": "PyMT tumors", "value": "readily detectable"},
      {"measurement": "whole animal imaging: elimination and liver accumulation", "setting": "[2]; 30 μg Alexa Fluor 647-labeled CREKA, 6 hours", "value": "excreted into the urine and does not accumulate in the liver"},
      {"measurement": "CREKA peptide detection in tumors", "setting": "[2]; intravenous, fluorescent dye at N-terminus, minutes to hours after the injection", "value": "readily detectable"},
      {"measurement": "CREKA peptide detection in normal tissues", "setting": "[2]; intravenous, fluorescent peptide", "value": "essentially undetectable"},
      {"measurement": "fluorescence in the tumors", "setting": "[3]; 30 minutes after the injection", "value": "equally strong fluorescence"},
      {"measurement": "decrease of tumor fluorescence", "setting": "[3]; after 3 hours", "value": 70, "unit": "%"}
    ]}
  ]
}
